Experimental data reported in ChEMBL document CHEMBL3638822, “Pyrazolopyrimidine compounds and their use as PDE10 inhibitors” (2015).

These compounds were tested against T1, Phosphodiesterase (Bos taurus, UniProt F1MPW5) (assay: Inhibition Assay: The PDE assay was performed according to a modified method referred to a report of Kotera et al. (Kotera et al., Biochem. Pharmacol., vol. 60, pp. 1333-1341, 2000), by the radiolabeled nucleotide method.Specifically, the measurements of the inhibitory activities were carried out in the following method.(Method) The test compounds were dissolved in dimethyl sulfoxide (DMSO). 2 uL of the compound solution was added to 96 well plate, and the reaction mixture (20 uL of PDE enzyme solution in 50 mM Tris-HCl, pH 8.0, 40 uL of the assay buffer (50 mM Tris-HCl, pH 8.0, 2 mM MgCl2, 0.07% 2-mercaptoethanol, and 0.825 mg/mL bovine serum albumin), and 20 uL of 1 mg/mL snake venom in 50 mM Tris-HCl, pH8.0) was added to the 96 well plate. The enzyme reaction was started by adding and mixing with substrate solution of 20 L containing approximate 35 nM 3H-cAMP in 50 mM Tris-HCl, pH 8.0. The final concentration of cAMP in the reaction mixtures was 7 nM.).
T1 sequence (F1MPW5 whole entry): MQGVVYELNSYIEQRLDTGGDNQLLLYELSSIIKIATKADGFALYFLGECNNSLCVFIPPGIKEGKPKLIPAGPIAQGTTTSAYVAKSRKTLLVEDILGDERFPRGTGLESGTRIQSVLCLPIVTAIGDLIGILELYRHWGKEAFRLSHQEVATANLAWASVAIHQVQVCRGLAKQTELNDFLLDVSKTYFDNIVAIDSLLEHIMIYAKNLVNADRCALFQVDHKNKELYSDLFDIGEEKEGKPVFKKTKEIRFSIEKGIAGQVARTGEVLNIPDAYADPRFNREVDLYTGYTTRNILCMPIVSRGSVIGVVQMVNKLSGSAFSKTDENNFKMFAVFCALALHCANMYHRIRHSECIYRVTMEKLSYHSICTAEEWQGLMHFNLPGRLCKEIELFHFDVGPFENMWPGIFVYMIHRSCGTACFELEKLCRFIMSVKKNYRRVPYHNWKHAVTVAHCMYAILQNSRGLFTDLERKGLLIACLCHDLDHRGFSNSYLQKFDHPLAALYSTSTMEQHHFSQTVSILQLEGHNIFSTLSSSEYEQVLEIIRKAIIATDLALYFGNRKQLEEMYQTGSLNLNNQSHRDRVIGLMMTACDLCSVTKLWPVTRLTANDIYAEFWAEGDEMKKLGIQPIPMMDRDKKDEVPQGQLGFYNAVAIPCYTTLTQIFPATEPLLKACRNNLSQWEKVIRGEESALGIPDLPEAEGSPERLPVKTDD
Work on `C[C@]1(O)CC[C@H](Nc2cc(N3CC[C@@H](F)C3)nc3cc(-c4nc5ccccc5nc4C(F)(F)F)nn23)CC1` yielded an IC50 of 0.18 nM. With `Cc1ccc2nc(C)c(-c3cc4nc(N5CCCC5)cc(N[C@@H]5CCS(=O)(=O)C5)n4n3)nc2c1` the IC50 was 0.0085 nM. `Cc1ccc2nc(C)c(-c3cc4nc(N5CCCC5)cc(NCCN(C)C)n4n3)nc2c1` gave an IC50 of 0.17 nM. Work on `Cc1nc2ccccc2nc1-c1cc2nc(N3CCCC3)cc(NC3CCOCC3)n2n1` yielded an IC50 of 0.11 nM. `Cc1ccc2nc(-c3cc4nc(N5CCCC5)cc(NC5CCOCC5)n4n3)c(C)nc2c1` gave an IC50 of 0.46 nM. `Cc1nc2c(nc1-c1cc3nc(N4CCCC4)cc(NC4CCC(F)(F)CC4)n3n1)CCCC2` gave an IC50 of 0.23 nM. Compound `Cc1nc2ccccc2nc1-c1cc2nc(N3CCCC3)cc(N3CCCC3)n2n1` has an IC50 of 0.57 nM. Work on `Cc1nc2ccccc2nc1-c1cc2nc(N3CC[C@@H](F)C3)cc(NC3COC3)n2n1` yielded an IC50 of 0.65 nM. `Cc1nc2ccccc2nc1-c1cc2nc(N3CCCC3)cc(NCCC#N)n2n1` was tested, and the IC50 was 0.052 nM. `Cc1nc2ccccc2nc1-c1cc2nc(N3CCCC3)cc(CC3CCOCC3)n2n1` showed an IC50 of 0.36 nM. `CCCN1CCC(Nc2cc(N3CCCC3)nc3cc(-c4nc5cc(C)ccc5nc4C)nn23)CC1` showed an IC50 of 0.15 nM. `Cc1nc2ccccc2nc1-c1cc2nc(N3CC=CC3)cc(NC3CCOCC3)n2n1` showed an IC50 of 0.2 nM. `Cc1nc2ccccc2nc1-c1cc2nc(N3CC[C@@H](F)C3)cc(NCC(C)(C)O)n2n1` was tested, and the IC50 was 0.32 nM. In the case of `Cc1nc2ccc(F)cc2nc1-c1cc2nc(N3CC[C@@H](F)C3)cc(NCC(C)(C)O)n2n1`, the IC50 is reported as 0.09 nM. With `CC(=O)N1CCC(Nc2cc(N3CCCC3)nc3cc(-c4nc5cc(C)ccc5nc4C)nn23)CC1` the IC50 was 0.044 nM. In the case of `Cc1ccc2nc(C)c(-c3cc4nc(N5CCC[C@H]5CO)cc(N(C5CCOCC5)C5CC5)n4n3)nc2c1`, the IC50 is reported as 0.0068 nM. Compound `Cc1nc2ccccc2nc1-c1cc2nc(N3CCCC3)cc(NC[C@H](O)C(F)(F)F)n2n1` has an IC50 of 0.13 nM. `Cc1nc2ccccc2nc1-c1cc2nc(N3CC[C@@H](F)C3)cc(NC3CCOCC3)n2n1` gave an IC50 of 0.83 nM. `Cc1nc2ccccc2nc1-c1cc2nc(N3CC[C@@H](F)C3)cc(NC3CC3)n2n1` was tested, and the IC50 was 0.87 nM. `Cc1nc(C)c(-c2cc3nc(N4CCCC4)cc(N(C)C4CCOCC4)n3n2)nc1C` showed an IC50 of 0.48 nM. `Cc1nc2c(C)cccc2nc1-c1cc2nc(N3CCCC3)cc(NC3CCOCC3)n2n1` was tested, and the IC50 was 0.78 nM. `Cc1ccc2nc(C)c(-c3cc4nc(N5CC(O)C5)cc(NC5CCOCC5)n4n3)nc2c1` was tested, and the IC50 was 1.08 nM. For `CO[C@H]1CC[C@H](Nc2cc(N3CCCC3)nc3cc(-c4nc5cc(C(F)(F)F)ccc5nc4C)nn23)CC1`, the IC50 was 0.045 nM. `Cc1nc2ccccc2nc1-c1cc2nc(N3CCC[C@H]3CO)cc(N[C@@H]3CCCOC3)n2n1` gave an IC50 of 0.39 nM. With `Cc1nc2ccc(F)cc2nc1-c1cc2nc(N3CCCC3)cc(N[C@H]3CCCC[C@@H]3O)n2n1` the IC50 was 0.035 nM. With `Cc1nc2ccccc2nc1-c1cc2nc(N3CCCC3)cc(N(C)C3CCOCC3)n2n1` the IC50 was 0.0045 nM. `Cc1nc2ccc(F)cc2nc1-c1cc2nc(N3CC[C@@H](F)C3)cc(N[C@H]3CC[C@](C)(O)CC3)n2n1` was tested, and the IC50 was 0.09 nM. Work on `CCc1nc2ccccc2nc1-c1cc2nc(N3CC[C@@H](F)C3)cc(N[C@H]3CC[C@H](OC)CC3)n2n1` yielded an IC50 of 0.39 nM. `Cc1nc2ccccc2nc1-c1cc2nc(C3=CCCC3)cc(NC3CCOCC3)n2n1` showed an IC50 of 0.22 nM. In the case of `Cc1nc2ccccc2nc1-c1cc2nc(N3CCCC3)cc(OC3CCOCC3)n2n1`, the IC50 is reported as 0.38 nM.
